Laboratory results reported in patent publication US9266939B2, “Compositions comprising natriuretic peptides and methods of use thereof” (Alexion Pharmaceuticals, Inc., priority 2010, dated 2016).
Where “and” joins values, the source holds several entries; their conditions need not be identical. Identical values can stand only once. Marks after values point to notes of the source that are not given here.

Test system: wild-type (CD-1) mice
Experiment: Daily bolus SC injection of NC2st on bone growth in wild-type (CD-1) mice
Type: in vivo
Method: The study was designed to evaluate the relationship between different doses of NC2st and the pharmacologic response on bone. The relationship was evaluated by measuring the effect of increasing doses of NC2st (SEQ ID NO: 502; as described, e.g., in Example 1) on bone growth in wild-type (WT, CD-1) mice. Bone growth response of wild-type and Fgfr3^369/+ (ACH) mice was compared.
CD-1 mice are a standard rodent species for use in pharmacodynamic studies. Briefly, nursing mothers with fostered female pups of 13 to 16 days were obtained. At the age of 21 days, pups were weaned and randomized based on body weight into treatment groups.
The animals received NC2st as a subcutaneous injection into the interscapular region as described in Table 11 below.
CD-1 mice were treated at 3 weeks old at the indicated doses for 35 consecutive days, followed by necropsy 24 hours after the last injection.
Ex vivo radiographs of whole body, rib cage, and skull were taken using a Faxitron model MX-20 DC4 under constant conditions (26 kV, 10 sec at 1×, 3× and 3× magnification, respectively). Bone measurements were performed on the radiographic images of all animals in a blinded fashion using the software Image Processing and Analysis in Java (ImageJ).
Bone samples were cleaned of excess tissue (not scraped) and fixed. Length of femur and tibia was measured using a caliper.

[1] = day 36, Tx-10 (10 mg/kg SC once daily)
[2] = day 36, Tx-30 (30 mg/kg SC once daily)
[3] = day 36, Tx-100 (100 mg/kg SC once daily)

Substance: NC2st: Fc-CNP fusion: Strep-tag II, TEV site, human IgG-1 Fc, 16-amino acid glycine-rich linker, CNP22; SEQ ID NO: 502
- treatment time after which crown-rump length in vivo differed significantly from Vehicle (Tx-30): 2 weeks
- treatment time after which tail length in vivo differed significantly from Vehicle (Tx-30): 2 weeks
- treatment time after which tibia length in vivo differed significantly from Vehicle (Tx-30): 4 weeks
- treatment time after which crown-rump length in vivo differed significantly from Vehicle (Tx-100): 2 weeks
- treatment time after which tail length in vivo differed significantly from Vehicle (Tx-100): 2 weeks
- treatment time after which tibia length in vivo differed significantly from Vehicle (Tx-100): 2 weeks
- % Δ Cervical segment (X-Ray) compared to Vehicle [1]: 8.8%
- % Δ Circularity index (X-Ray) compared to Vehicle [1]: −1.9%
- % Δ Crown-rump length in vivo compared to Vehicle [1]: 4.4%
- % Δ Foramen magnum height compared to Vehicle [1]: 1.2%
- % Δ Foramen magnum width compared to Vehicle [1]: 1.3%
- % Δ Left Femur length compared to Vehicle [1]: 3.3%
- % Δ Left Humerus length compared to Vehicle [1]: 1.6%
- % Δ Left Tibia length compared to Vehicle [1]: 2.8%
- % Δ Left Ulna length compared to Vehicle [1]: 0.71%
- % Δ Lumbar segment (X-Ray) compared to Vehicle [1]: 6.2%
- % Δ Metatarsal bone (3rd digit) (X-Ray) compared to Vehicle [1]: 5.2%
- % Δ Naso-anal length (X-Ray) compared to Vehicle [1]: 6.5%
- % Δ Occipital-front distance (X-Ray) compared to Vehicle [1]: 1.4%
- % Δ Right Tibia length in vivo compared to Vehicle [1]: 1.1%
- % Δ Sternum length (X-Ray) compared to Vehicle [1]: 6.9%
- % Δ Tail length in vivo compared to Vehicle [1]: 6.1%
- % Δ Thoracic segment (X-Ray) compared to Vehicle [1]: 11.4%
- % Δ Total CTL segments (X-Ray) compared to Vehicle [1]: 8.9%
- Cervical segment (X-Ray) [1]: 9.00 mm
- Circularity index (X-Ray) [1]: 0.370
- Crown-rump length in vivo [1]: 99.1 mm
- Foramen magnum height [1]: 4.13 mm
- Foramen magnum width [1]: 4.72 mm
- Left Femur length [1]: 15.6* mm
- Left Humerus length [1]: 12.4 mm
- Left Tibia length [1]: 18.5 mm
- Left Ulna length [1]: 14.1 mm
- Lumbar segment (X-Ray) [1]: 20.5* mm
- Metatarsal bone (3rd digit) (X-Ray) [1]: 24.5* mm
- Naso-anal length (X-Ray) [1]: 115* mm
- Occipital-front distance (X-Ray) [1]: 42.9 mm
- Right Tibia length in vivo [1]: 19.0 mm
- Sternum length (X-Ray) [1]: 38.5* mm
- Tail length in vivo [1]: 102 mm
- Thoracic segment (X-Ray) [1]: 25.5* mm
- Total CTL segments (X-Ray) [1]: 55.0* mm
- Δ Cervical segment (X-Ray) compared to Vehicle [1]: 0.73 mm
- Δ Circularity index (X-Ray) compared to Vehicle [1]: −0.007
- Δ Crown-rump length in vivo compared to Vehicle [1]: 4.2 mm
- Δ Foramen magnum height compared to Vehicle [1]: 0.05 mm
- Δ Foramen magnum width compared to Vehicle [1]: 0.06 mm
- Δ Left Femur length compared to Vehicle [1]: 0.5 mm
- Δ Left Humerus length compared to Vehicle [1]: 0.2 mm
- Δ Left Tibia length compared to Vehicle [1]: 0.5 mm
- Δ Left Ulna length compared to Vehicle [1]: 0.10 mm
- Δ Lumbar segment (X-Ray) compared to Vehicle [1]: 1.2 mm
- Δ Metatarsal bone (3rd digit) (X-Ray) compared to Vehicle [1]: 1.2 mm
- Δ Naso-anal length (X-Ray) compared to Vehicle [1]: 7.0 mm
- Δ Occipital-front distance (X-Ray) compared to Vehicle [1]: 0.6 mm
- Δ Right Tibia length in vivo compared to Vehicle [1]: 0.20 mm
- Δ Sternum length (X-Ray) compared to Vehicle [1]: 2.5 mm
- Δ Tail length in vivo compared to Vehicle [1]: 5.9 mm
- Δ Thoracic segment (X-Ray) compared to Vehicle [1]: 2.6 mm
- Δ Total CTL segments (X-Ray) compared to Vehicle [1]: 4.5 mm
- % Δ Cervical segment (X-Ray) compared to Vehicle [2]: 13.8%
- % Δ Circularity index (X-Ray) compared to Vehicle [2]: −4.0%
- % Δ Crown-rump length in vivo compared to Vehicle [2]: 7.5%
- % Δ Foramen magnum height compared to Vehicle [2]: 0.98%
- % Δ Foramen magnum width compared to Vehicle [2]: 1.5%
- % Δ Left Femur length compared to Vehicle [2]: 6.0%
- % Δ Left Humerus length compared to Vehicle [2]: 2.5%
- % Δ Left Tibia length compared to Vehicle [2]: 5.0%
- % Δ Left Ulna length compared to Vehicle [2]: 3.6%
- % Δ Lumbar segment (X-Ray) compared to Vehicle [2]: 9.3%
- % Δ Metatarsal bone (3rd digit) (X-Ray) compared to Vehicle [2]: 6.4%
- % Δ Naso-anal length (X-Ray) compared to Vehicle [2]: 9% and 9.3%
- % Δ Occipital-front distance (X-Ray) compared to Vehicle [2]: 1.2%
- % Δ Right Tibia length in vivo compared to Vehicle [2]: 3.2%
- % Δ Sternum length (X-Ray) compared to Vehicle [2]: 10.8%
- % Δ Tail length in vivo compared to Vehicle [2]: 10.3%
- % Δ Thoracic segment (X-Ray) compared to Vehicle [2]: 14.4%
- % Δ Total CTL segments (X-Ray) compared to Vehicle [2]: 12.3%
- Cervical segment (X-Ray) [2]: 9.41* mm
- Circularity index (X-Ray) [2]: 0.362
- Crown-rump length in vivo [2]: 102* mm
- Foramen magnum height [2]: 4.12 mm
- Foramen magnum width [2]: 4.73 mm
- Left Femur length [2]: 16.0* mm
- Left Humerus length [2]: 12.5* mm
- Left Tibia length [2]: 18.9* mm
- Left Ulna length [2]: 14.5 mm
- Lumbar segment (X-Ray) [2]: 21.1* mm
- Metatarsal bone (3rd digit) (X-Ray) [2]: 24.8* mm
- Naso-anal length (X-Ray) [2]: 118* mm
- Occipital-front distance (X-Ray) [2]: 42.8 mm
- Right Tibia length in vivo [2]: 19.4* mm
- Sternum length (X-Ray) [2]: 39.9* mm
- Tail length in vivo [2]: 106* mm
- Thoracic segment (X-Ray) [2]: 26.2* mm
- Total CTL segments (X-Ray) [2]: 56.7* mm
- Δ Cervical segment (X-Ray) compared to Vehicle [2]: 1.14 mm
- Δ Circularity index (X-Ray) compared to Vehicle [2]: −0.015
- Δ Crown-rump length in vivo compared to Vehicle [2]: 7.1 mm
- Δ Foramen magnum height compared to Vehicle [2]: 0.04 mm
- Δ Foramen magnum width compared to Vehicle [2]: 0.07 mm
- Δ Left Femur length compared to Vehicle [2]: 0.9 mm
- Δ Left Humerus length compared to Vehicle [2]: 0.3 mm
- Δ Left Tibia length compared to Vehicle [2]: 0.9 mm
- Δ Left Ulna length compared to Vehicle [2]: 0.5 mm
- Δ Lumbar segment (X-Ray) compared to Vehicle [2]: 1.8 mm
- Δ Metatarsal bone (3rd digit) (X-Ray) compared to Vehicle [2]: 1.5 mm
- Δ Naso-anal length (X-Ray) compared to Vehicle [2]: 10 mm
- Δ Occipital-front distance (X-Ray) compared to Vehicle [2]: 0.5 mm
- Δ Right Tibia length in vivo compared to Vehicle [2]: 0.60 mm
- Δ Sternum length (X-Ray) compared to Vehicle [2]: 3.9 mm
- Δ Tail length in vivo compared to Vehicle [2]: 9.9 mm
- Δ Thoracic segment (X-Ray) compared to Vehicle [2]: 3.3 mm
- Δ Total CTL segments (X-Ray) compared to Vehicle [2]: 6.2 mm
- % Δ Cervical segment (X-Ray) compared to Vehicle [3]: 20.3%
- % Δ Circularity index (X-Ray) compared to Vehicle [3]: −7.4%
- % Δ Crown-rump length in vivo compared to Vehicle [3]: 12.7%
- % Δ Foramen magnum height compared to Vehicle [3]: 2.2%
- % Δ Foramen magnum width compared to Vehicle [3]: 1.3%
- % Δ Left Femur length compared to Vehicle [3]: 10% and 9.9%
- % Δ Left Humerus length compared to Vehicle [3]: 6% and 5.7%
- % Δ Left Tibia length compared to Vehicle [3]: 7% and 7.2%
- % Δ Left Ulna length compared to Vehicle [3]: 6% and 5.7%
- % Δ Lumbar segment (X-Ray) compared to Vehicle [3]: 13.5%
- % Δ Metatarsal bone (3rd digit) (X-Ray) compared to Vehicle [3]: 12.0%
- % Δ Naso-anal length (X-Ray) compared to Vehicle [3]: 13%
- % Δ Occipital-front distance (X-Ray) compared to Vehicle [3]: 2.1%
- % Δ Right Tibia length in vivo compared to Vehicle [3]: 6.4%
- % Δ Sternum length (X-Ray) compared to Vehicle [3]: 12.5%
- % Δ Tail length in vivo compared to Vehicle [3]: 16.5%
- % Δ Thoracic segment (X-Ray) compared to Vehicle [3]: 21.0%
- % Δ Total CTL segments (X-Ray) compared to Vehicle [3]: 17.8%
- Cervical segment (X-Ray) [3]: 9.95* mm
- Circularity index (X-Ray) [3]: 0.349*
- Crown-rump length in vivo [3]: 107* mm
- Foramen magnum height [3]: 4.17 mm
- Foramen magnum width [3]: 4.72 mm
- Left Femur length [3]: 16.6* mm
- Left Humerus length [3]: 12.9* mm
- Left Tibia length [3]: 19.3* mm
- Left Ulna length [3]: 14.8* mm
- Lumbar segment (X-Ray) [3]: 21.9* mm
- Metatarsal bone (3rd digit) (X-Ray) [3]: 26.1* mm
- Naso-anal length (X-Ray) [3]: 122* mm
- Occipital-front distance (X-Ray) [3]: 43.2* mm
- Right Tibia length in vivo [3]: 20.0* mm
- Sternum length (X-Ray) [3]: 40.5* mm
- Tail length in vivo [3]: 112* mm
- Thoracic segment (X-Ray) [3]: 27.7* mm
- Total CTL segments (X-Ray) [3]: 59.5* mm
- Δ Cervical segment (X-Ray) compared to Vehicle [3]: 1.68 mm
- Δ Circularity index (X-Ray) compared to Vehicle [3]: −0.028
- Δ Crown-rump length in vivo compared to Vehicle [3]: 12.1 mm
- Δ Foramen magnum height compared to Vehicle [3]: 0.09 mm
- Δ Foramen magnum width compared to Vehicle [3]: 0.06 mm
- Δ Left Femur length compared to Vehicle [3]: 1.5 mm
- Δ Left Humerus length compared to Vehicle [3]: 0.7 mm
- Δ Left Tibia length compared to Vehicle [3]: 1.3 mm
- Δ Left Ulna length compared to Vehicle [3]: 0.8 mm
- Δ Lumbar segment (X-Ray) compared to Vehicle [3]: 2.6 mm
- Δ Metatarsal bone (3rd digit) (X-Ray) compared to Vehicle [3]: 2.8 mm
- Δ Naso-anal length (X-Ray) compared to Vehicle [3]: 14 mm
- Δ Occipital-front distance (X-Ray) compared to Vehicle [3]: 0.9 mm
- Δ Right Tibia length in vivo compared to Vehicle [3]: 1.2 mm
- Δ Sternum length (X-Ray) compared to Vehicle [3]: 4.5 mm
- Δ Tail length in vivo compared to Vehicle [3]: 15.9 mm
- Δ Thoracic segment (X-Ray) compared to Vehicle [3]: 4.8 mm
- Δ Total CTL segments (X-Ray) compared to Vehicle [3]: 9.0 mm
